Test system: 292921-168-R-J2-PDC KRAS tumor spheroid viability
Assay: Anticancer human tumor 292921-168-R-J2-PDC patient-derived pancreatic carcinoma cell line growth inhibition [KRAS2]
Settings: spheroids with HUVEC and MSC; for IC50: curve of first compound; for viability, T/C: stronger effect = lower value
In short: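 KRAS-mutant tumor cells were grown as spheroids with HUVEC endothelial cells and human MSCs as stroma. Targeted agents were tested alone and with KRAS pathway inhibitors. Doses started at or near clinical Cmax, or 10 microM, descending half-log.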

[1] = second compound 0.1 µM, first compound 0.0316 µM
[2] = second compound 0.1 µM, first compound 0.1 µM
[3] = second compound 0.1 µM, first compound 0.316 µM
[4] = second compound 0.1 µM, first compound 1 µM
[5] = second compound 0.1 µM, first compound 3.16 µM
[6] = second compound 0.1 µM, first compound 10 µM
[7] = second compound 0.316 µM, first compound 0.0316 µM
[8] = second compound 0.316 µM, first compound 0.1 µM
[9] = second compound 0.316 µM, first compound 0.316 µM
[10] = second compound 0.316 µM, first compound 1 µM
[11] = second compound 0.316 µM, first compound 3.16 µM
[12] = second compound 0.316 µM, first compound 10 µM
[13] = second compound 1 µM, first compound 0.0316 µM
[14] = second compound 1 µM, first compound 0.1 µM
[15] = second compound 1 µM, first compound 0.316 µM
[16] = second compound 1 µM, first compound 1 µM
[17] = second compound 1 µM, first compound 3.16 µM
[18] = second compound 1 µM, first compound 10 µM
[19] = second compound 3.16 µM, first compound 0.0316 µM
[20] = second compound 3.16 µM, first compound 0.1 µM
[21] = second compound 3.16 µM, first compound 0.316 µM
[22] = second compound 3.16 µM, first compound 1 µM
[23] = second compound 3.16 µM, first compound 3.16 µM
[24] = second compound 3.16 µM, first compound 10 µM
[25] = second compound 10 µM, first compound 0.0316 µM
[26] = second compound 10 µM, first compound 0.1 µM
[27] = second compound 10 µM, first compound 0.316 µM
[28] = second compound 10 µM, first compound 1 µM
[29] = second compound 10 µM, first compound 3.16 µM
[30] = second compound 10 µM, first compound 10 µM
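Further: drug exposure lasted seven days after spheroids formed for three days.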
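Wherever viability, T/C is given: percent of DMSO vehicle control viability which is 100%.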

SMILES	IC50 (second compound 0.1 µM)	IC50 (second compound 0.316 µM)	IC50 (second compound 1 µM)	IC50 (second compound 3.16 µM)	IC50 (second compound 10 µM)	viability, T/C [1]	viability, T/C [2]	viability, T/C [3]	viability, T/C [4]	viability, T/C [5]	viability, T/C [7]	viability, T/C [8]	viability, T/C [9]	viability, T/C [10]	viability, T/C [11]	viability, T/C [13]	viability, T/C [14]	viability, T/C [15]	viability, T/C [16]	viability, T/C [17]	further results
COc1cc2nccc(Oc3ccc(NC(=O)C4(C(=O)Nc5ccc(F)cc5)CC4)cc3)c2cc1OC + CC1OCC2(CCN(c3cnc(Sc4ccnc(N)c4Cl)c(N)n3)CC2)C1N	1610 nM	569 nM	< 31.6 nM	< 31.6 nM	< 31.6 nM	81%	82.6%	72%	65.9%	28.9%	60.9%	61.4%	54.6%	45.1%	25.6%	42.2%	45.7%	26.1%	33%	22.5%	viability, T/C [6]: 19%; viability, T/C [12]: 17.1%; viability, T/C [18]: 13%; viability, T/C [19]: 35.4%; viability, T/C [20]: 33.5%; viability, T/C [21]: 35.5%; viability, T/C [22]: 26.8%; viability, T/C [23]: 17.8%; viability, T/C [24]: 12%; viability, T/C [25]: 31.7%; viability, T/C [26]: 30.2%; viability, T/C [27]: 31.7%; viability, T/C [28]: 24.9%; viability, T/C [29]: 14.3%; viability, T/C [30]: 9.5%
CC1COCCN1c1cc(-c2ccnn2C)c2ccnc(-c3ccn[nH]3)c2n1 (stereo not given) + COc1cc2nc(C)nc(NC(C)c3cc(N)cc(C(F)(F)F)c3)c2cc1OC1CCOC1	< 10 nM	< 10 nM	< 10 nM	< 10 nM	< 10 nM	14.4%	11.1%	10.6%	12.1%	14.1%	12.9%	10.1%	9.13%	10.8%	12.5%	11.6%	9.3%	8.99%	11.2%	13.2%	viability, T/C (second compound 0.1 µM, first compound 0.01 µM): 30.3%; viability, T/C (second compound 0.316 µM, first compound 0.01 µM): 25.2%; viability, T/C (second compound 1 µM, first compound 0.01 µM): 25.6%; viability, T/C (second compound 3.16 µM, first compound 0.01 µM): 19.4%; viability, T/C [19]: 12.1%; viability, T/C [20]: 9.36%; viability, T/C [21]: 8.32%; viability, T/C [22]: 10.4%; viability, T/C [23]: 11.8%; viability, T/C (second compound 10 µM, first compound 0.01 µM): 12.9%; viability, T/C [25]: 12.5%; viability, T/C [26]: 9.42%; viability, T/C [27]: 8.21%; viability, T/C [28]: 8.78%; viability, T/C [29]: 7.99%
O=C(c1cc(Cc2n[nH]c(=O)c3ccccc23)ccc1F)N1CCN(C(=O)C2CC2)CC1 + CNCc1ccccc1-c1csc(C(C)Nc2nc(C)nc3cc(OC)c(OC)cc23)c1	6100 nM	5510 nM	4920 nM	< 31.6 nM	< 31.6 nM	98%	109%	99.2%	87.6%	61.2%	88.7%	79%	76.8%	74%	62.3%	83.5%	68.3%	69.9%	70.1%	52.3%	viability, T/C [6]: 41.6%; viability, T/C [12]: 37.6%; viability, T/C [18]: 42.4%; viability, T/C [19]: 0.14%; viability, T/C [20]: 0.13%; viability, T/C [21]: 0.11%; viability, T/C [22]: 0.1%; viability, T/C [23]: 0.1%; viability, T/C [24]: 0.17%; viability, T/C [25]: 0.33%; viability, T/C [26]: 0.1%; viability, T/C [27]: 0.1%; viability, T/C [28]: 0.11%; viability, T/C [29]: 0.11%; viability, T/C [30]: 0.19%
Cn1nccc1Nc1nccc(-c2cc3c(s2)C(C)(C)N(CCN2CCOCC2)C3=O)n1 + C=CC(=O)N1CCN(c2nc(=O)n(-c3c(C)ccnc3C(C)C)c3nc(-c4c(O)cccc4F)c(F)cc23)C(C)C1	122 nM	131 nM	111 nM	77.7 nM	< 31.6 nM	95.1%	55.6%	23.7%	12.3%	11.2%	107%	58.5%	21.9%	13.7%	12.4%	115%	52.7%	22.5%	15.2%	12.5%	viability, T/C [6]: 11.1%; viability, T/C [12]: 12.6%; viability, T/C [18]: 14.4%; viability, T/C [19]: 76.6%; viability, T/C [20]: 42.5%; viability, T/C [21]: 19.2%; viability, T/C [22]: 14.3%; viability, T/C [23]: 13.8%; viability, T/C [24]: 17.2%; viability, T/C [25]: 25.2%; viability, T/C [26]: 18%; viability, T/C [27]: 14.6%; viability, T/C [28]: 14.4%; viability, T/C [29]: 15.1%; viability, T/C [30]: 19.5%

— PubChem BioAssay AID1963870 (Molecular Pharmacology Branch, DTP, NCI, 2024)
